# Data: PubChem BioAssay (NCI)
#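 Exposure lasted 48 hours, with cells grown in 96-well plates and compounds tested at five concentrations. Abbreviation: GI50, concentration required for 50% inhibition of growth. At the TGI there is no net growth.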
# Tests used:
# Assay in all cases: DTP human tumour cell line panel, 48 h
# [1] = system: SK-MEL-2 melanoma
# [2] = system: LOX IMVI melanoma
# [3] = system: SF-539 CNS
# [4] = system: SF-295 CNS
# [5] = system: K-562 leukemia
# [6] = system: A549 NSCLC
# [7] = system: SW-620 colon
# [8] = system: SK-MEL-28 melanoma
# [9] = system: TK-10 renal
# [10] = system: SNB-75 CNS
# [11] = system: HOP-92 NSCLC
# [12] = system: OVCAR-8 ovarian
# [13] = system: 786-0 renal
# [14] = system: ACHN renal
# [15] = system: RPMI-8226 leukemia
# [16] = system: NCI-H226 lung
# [17] = system: SK-OV-3 ovarian
# [18] = system: CCRF-CEM leukemia
# [19] = system: OVCAR-3 ovarian
# [20] = system: MCF7 breast
# [21] = system: HT29 colon
# [22] = system: RXF 393 renal
# [23] = system: HCC-2998 colon
# [24] = system: UACC-257 melanoma
# [25] = system: MDA-MB-231 breast
# [26] = system: UACC-62 melanoma
# [27] = system: SNB-19 CNS
# [28] = system: UO-31 renal
# [29] = system: BT-549 breast
# [30] = system: NCI-H460 lung
# [31] = system: NCI-H23 lung
# [32] = system: SF-268 CNS
# [33] = system: HCT-116 colon
# [34] = system: IGROV1 ovarian
# [35] = system: A498 renal
# [36] = system: DU-145 prostate
# [37] = system: KM12 colon
# [38] = system: MOLT-4 leukemia
# [39] = system: NCI-H522 lung
# [40] = system: HOP-62 NSCLC
# [41] = system: HL-60(TB) leukemia
# [42] = system: CAKI-1 renal
# [43] = system: OVCAR-5 ovarian
# [44] = system: HS 578T breast
# [45] = system: OVCAR-4 ovarian
# [46] = system: T-47D breast
# [47] = system: SR leukemia
# [48] = system: U251 CNS
# [49] = system: COLO 205 colon
# [50] = system: SN12C renal
# [51] = system: SK-MEL-5 melanoma
# [52] = system: PC-3 prostate
# [53] = system: NCI/ADR-RES ovarian
# [54] = system: MALME-3M melanoma
# [55] = system: HCT-15 colon
# [56] = system: MDA-MB-435
# [57] = system: M14 melanoma
# [58] = system: EKVX NSCLC
compound,measurement,setting,value
Cc1[nH]c(C(=O)Nc2ccc(S(=O)(=O)N3CCCCC3)cc2OCCOCCOCCOCCOCCOCCOCCOCCOCCOc2cc(S(=O)(=O)N3CCCCC3)ccc2NC(=O)c2[nH]c(C)c3c2CCCCC3=O)c2c1C(=O)CCCC2,GI50,[1],768 nM
same,GI50,[2],169 nM
same,TGI,[2],639 nM
same,GI50,[3],599 nM
same,TGI,[3],> 100000 nM
same,GI50,[4],2830 nM
same,TGI,[4],> 100000 nM
same,GI50,[5],435 nM
same,TGI,[5],> 100000 nM
same,GI50,[6],2390 nM
same,TGI,[6],> 100000 nM
same,GI50,[7],2050 nM
same,TGI,[7],> 100000 nM
same,GI50,[8],1590 nM
same,TGI,[8],> 100000 nM
same,GI50,[9],2050 nM
same,TGI,[9],> 100000 nM
same,GI50,[10],78.8 nM
same,TGI,[10],1180 nM
same,GI50,[11],433 nM
same,TGI,[11],> 100000 nM
same,GI50,[12],1670 nM
same,TGI,[12],> 100000 nM
same,GI50,[13],1690 nM
same,TGI,[13],> 100000 nM
same,GI50,[14],17400 nM
same,TGI,[14],> 100000 nM
same,GI50,[15],325 nM
same,GI50,[16],542 nM
same,TGI,[16],8730 nM
same,GI50,[17],286 nM
same,TGI,[17],806 nM
same,GI50,[18],1290 nM
same,TGI,[18],> 100000 nM
same,GI50,[19],483 nM
same,GI50,[20],95 nM
same,TGI,[20],> 100000 nM
same,GI50,[21],648 nM
same,TGI,[21],> 19800 nM
same,GI50,[22],1260 nM
same,TGI,[22],> 100000 nM
same,GI50,[23],296 nM
same,TGI,[23],1120 nM
same,GI50,[24],944 nM
same,GI50,[25],776 nM
same,TGI,[25],> 100000 nM
same,GI50,[26],461 nM
same,TGI,[26],3710 nM
same,GI50,[27],1020 nM
same,TGI,[27],> 100000 nM
same,GI50,[28],4830 nM
same,TGI,[28],> 100000 nM
same,GI50,[29],911 nM
same,TGI,[29],> 100000 nM
same,GI50,[30],1770 nM
same,TGI,[30],> 100000 nM
same,GI50,[31],2380 nM
same,TGI,[31],> 100000 nM
same,GI50,[32],2290 nM
same,TGI,[32],> 100000 nM
same,GI50,[33],538 nM
same,TGI,[33],4410 nM
same,GI50,[34],480 nM
same,GI50,[35],1210 nM
same,GI50,[36],4990 nM
same,TGI,[36],> 100000 nM
same,GI50,[37],1680 nM
same,TGI,[37],> 100000 nM
same,GI50,[38],861 nM
same,TGI,[38],> 32800 nM
same,GI50,[39],190 nM
same,TGI,[39],1210 nM
same,GI50,[40],1110 nM
same,TGI,[40],> 100000 nM
same,GI50,[41],108 nM
same,GI50,[42],841 nM
same,TGI,[42],> 100000 nM
same,GI50,[43],3260 nM
same,TGI,[43],> 100000 nM
same,GI50,[44],375 nM
same,TGI,[44],> 21900 nM
same,GI50,[45],909 nM
same,TGI,[45],> 29700 nM
same,GI50,[46],489 nM
same,TGI,[46],> 100000 nM
same,GI50,[47],107 nM
same,TGI,[47],> 32500 nM
same,GI50,[48],1400 nM
same,TGI,[48],> 100000 nM
same,GI50,[49],1170 nM
same,TGI,[49],> 100000 nM
same,GI50,[50],1480 nM
same,TGI,[50],> 100000 nM
same,GI50,[51],3920 nM
same,TGI,[51],> 89800 nM
same,GI50,[52],1090 nM
same,TGI,[52],> 100000 nM
same,GI50,[53],> 100000 nM
same,TGI,[53],> 100000 nM
same,GI50,[54],909 nM
same,TGI,[54],> 23500 nM
same,GI50,[55],12900 nM
same,TGI,[55],> 100000 nM
same,GI50,[56],766 nM
same,TGI,[56],> 100000 nM
same,GI50,[57],1010 nM
same,TGI,[57],> 100000 nM
same,GI50,[58],2970 nM
same,TGI,[58],> 100000 nM
